Consider nine molecules from US4377594A, “Derivative of 4-(N-(substituted-benzylidene)amino-methyl cyclohexane-1-carboxylic acid” (Kureha Kagaku Kogyo Kabushiki Kaisha, priority 1980, dated 1983).

Data set [1] deals with Rat's polynuclear leukocyte migration. Put plainly: inhibitory effect on polynuclear leukocyte migration (Boyden method). It counts as cell-based. To be noted: read-out: Inhibition rate of polynuclear leukocyte migration. Here is the method: (2) Examination method for inhibitory effect on polynuclear leukocyte migration
Rat's polynuclear leukocyte migration was examined by Boyden method (refer to Japanese J. Clin. Med., 27(9), 172 (1969)) as follows; a mixture of 10 parts by volume of culture filtrate of E. coli and one part by volume of serum was incubated at 37° C. for one hour and diluted into 5-times volume with physiological salt solution, and the mixture obtained was used as an attractant. After preincubating polynuclear leukocyte suspension with each specimen for 10 min, migration of polynuclear leukocytes was examined.
^(2) The average value of inhibition rate (%) of polynuclear leukocyt
migration at each concentration (μM) of each Specimen.

Data set [2] can be described thus: acute toxicity, peroral administration. Conditions: in vivo, po; peroral, aqueous solution, female JCL-ICR mouse 5 to 6 weeks. The text has this:
(§1) (3) Examination method for acute toxicity
(§2) Acute toxicity was examined by administering perorally an aqueous solution of each Specimen to female JCL-ICR mouse of 5 to 6 weeks after birth.
(§3) ^(3) Median lethal dose (LD50), that is, dose for getting 50% of
(§4) mice to death, in unit of mg per one kilogram of body weight of mouse.

For data set [3], the system named is Rabbit platelet rich plasma (PRP); platelet aggregation. In words: inhibitory effect on platelet aggregation (induced by sodium arachidonate). It counts as cell-based. To be noted: rabbit PRP 300,000/μl; sodium arachidonate tested at 400 μM; preincubated at 37° C. for 5 min. Here is the method:
(1) Examination method for inhibitory effect on platelet aggregation
Rabbit platelet rich plasma (PRP) was used for Aggregation Tests. PRP was prepared by centrifugation of blood collected from the ear vein of Rabbit and diluted into number-concentration 300,000/μl with platelet poor plasma. Platelet aggregation was induced by Sodium Arachidonate and monitored (measured) with a four channel platelet aggregation Tracer PAT-4A (Niko Bioscience Co., Japan). Aggregation Tracer tube contaning 230 μl PRP was preincubated at 37° C. for 5 min with each Specimen.
^(1) The minimum concentration (μM) of each Specimen for inhibitin
completely (100%) the platelet aggregating effect by sodium arachidonate

The next data set deals with female JCL-ICR mouse. In words: acute toxicity, peroral administration. Conditions: mouse, in vivo.
Source text: as §1, §2, §3, §4

[4] abbreviates: 1 μM, average value, preincubation 10 min, rat.
[5] abbreviates: 10 μM, average value, preincubation 10 min, rat.
[6] abbreviates: 100 μM, average value, preincubation 10 min, rat.
[7] abbreviates: 1000 μM, average value, preincubation 10 min, rat.

Where a name gives a salt, the structure may show the parent alone. Read-outs that look alike come from different tables or passages of the source.

The term LD50 denotes the dose at which mortality reaches 50%. A high value points to a less toxic substance. Take `COc1ccccc1C=NC[C@H]1CC[C@H](C(=O)O)CC1` [IV]: the inhibition at 1 µM in data set [1] (setting [4]) worked out at 0%. The inhibition at 10 µM in data set [1] (setting [5]) was 0%. Further, the inhibition at 100 µM in data set [1] (setting [6]) is 27%. Moreover, the inhibition at 1000 µM in data set [1] (setting [7]) turned out to be 94%. In data set [2], the LD50 was > 3000 mg/kg.
For `O=C(O)[C@H]1CC[C@H](CN=Cc2ccc(O)cc2O)CC1` [III], the “Platelet aggregation ID100 (minimum concentration for inhibiting completely (100%) the platelet aggregating effect by sodium arachidonate)” value in data set [3] was > 1000 µM. For the same molecule, the inhibition at 1 µM in data set [1] (setting [4]) worked out at 0%. Besides, the inhibition at 10 µM in data set [1] (setting [5]) was 12%. Moreover, the inhibition at 100 µM in data set [1] (setting [6]) was 42%. In data set [1] (setting [7]), the inhibition at 1000 µM stood at 92%. Further, the median lethal dose (LD50) in data set [2] is > 3000 mg/kg.
As to `O=C(O)[C@H]1CC[C@H](CN=Cc2cccc(O)c2O)CC1` [II], in data set [1] (setting [4]), the inhibition at 1 µM was found to be 0%. In data set [1] (setting [5]), the inhibition at 10 µM was 25%. The inhibition at 100 µM in data set [1] (setting [6]) was 66%. In data set [1] (setting [7]), the inhibition at 1000 µM turned out to be 100%. For the same molecule, the LD50 in data set [2] is > 3000 mg/kg.
As for `COc1ccc(C=NC[C@H]2CC[C@H](C(=O)O)CC2)cc1OC` [Example 7 sodium salt, sodium salt of trans-4-[N-(3',4'-dimethoxybenzylidene)aminomethyl]cyclohexane-1-carboxylic acid], the “acute toxicity (in words)” value with female JCL-ICR mouse is “low acute toxicity”.
As for `COc1ccc2c(c1)c(CC(=O)O)c(C)n2C(=O)c1ccc(Cl)cc1` [V], in data set [1] (Rattus norvegicus), the inhibition at 1 µM is 0%, the inhibition at 10 µM worked out at 0%, the inhibition at 100 µM was determined as 25% and the inhibition at 1000 µM was determined as 79%. This molecule also showed a 50% lethal dose (LD50) in data set [2] of 30 mg/kg.
As to `COc1cc(C=NC[C@H]2CC[C@H](C(=O)O)CC2)ccc1O` [Example 9 sodium salt, trans-4-[N-(3'-methoxy-4'-hydroxybenzylidene)aminomethyl]cyclohexane-1-carboxylic acid], in the data set on female JCL-ICR mouse, the “acute toxicity (in words)” value is recorded as “low acute toxicity”.
For `CN1CCCN(C(c2ccccc2)c2ccc(Cl)cc2)CC1` (stereo not drawn) [VI], the “Platelet aggregation ID100 (minimum concentration for inhibiting completely (100%) the platelet aggregating effect by sodium arachidonate)” value in data set [3] is > 1000 µM. Moreover, in data set [1] (Rattus norvegicus), the inhibition at 1 µM came out at 15%, the inhibition at 10 µM is 48%, the inhibition at 100 µM was 80% and the inhibition at 1000 µM came to 100%. This molecule came in with an LD50 in data set [2] of 350 mg/kg.
In the case of `O=C(O)[C@H]1CC[C@H](CN=Cc2ccccc2O)CC1` [I], the “Platelet aggregation ID100 (minimum concentration for inhibiting completely (100%) the platelet aggregating effect by sodium arachidonate)” value in data set [3] was > 1000 µM. Further, in data set [1] (setting [4]), the inhibition at 1 µM was found to be 0%. The inhibition at 10 µM in data set [1] (setting [5]) came out at 0%. Moreover, in data set [1] (setting [6]), the inhibition at 100 µM was 39%. Also, the inhibition at 1000 µM in data set [1] (setting [7]) was 93%. Moreover, the LD50 in data set [2] is ~2000 mg/kg.
As to `COc1cc(C=NC[C@H]2CC[C@H](C(=O)O)CC2)cc(OC)c1OC` [Example 8 sodium salt, trans-4-[N-(3',4',5'-trimethoxybenzylidene)aminomethyl]cyclohexane-1-carboxylic acid], in the data set on female JCL-ICR mouse, the “acute toxicity (in words)” value was “low acute toxicity”.
